From PMC9749938, “Alkyltriphenylphosphonium turns naphthoquinoneimidazoles into potent membrane depolarizers against mycobacteria” (RSC Medicinal Chemistry, 2022)
In brackets after ≈: the same amount, converted by molar mass. Read-outs that look alike come from different tables or passages of the source.

How the values were obtained:
[1] = system: Vero E6 cells; assay: Cytotoxicity on Vero E6 cells; type: cell-based, African green monkey; conditions: Chlorocebus sabaeus, Vero C1008; 48 h; reduces growth of Vero E6 by 50% vs untreated controls
[2] = system: M. bovis BCG; assay: microbe, parasite or virus in culture; type: cell-based, Mycobacterium bovis BCG; conditions: for MIC50 / MIC90 / IC50: Mycobacterium tuberculosis variant bovis BCG, BCG; for MIC50: read-out: M. bovis BCG MIC50, concentration reducing growth by 50% vs untreated controls; for M. bovis BCG MIC90: concentration reducing growth by 90% vs untreated controls; for M. bovis BCG MIC50: concentration reducing growth by 50% vs untreated controls; for IC50: read-out: M. bovis BCG MIC50
[3] = system: inverted membrane vesicles of wild-type M. smegmatis mc^24517; assay: NADH oxidation in inverted membrane vesicles, WT; type: biochemical; conditions: for EC50: WT M. smegmatis mc^24517, read-out: EC50 of activation of NADH oxidation, WT IMV
[4] = system: M. bovis BCG-pfurA-RFP; type: cell-based, Mycobacterium bovis BCG; conditions: 24 h, 37 °C
[5] = system: M. bovis BCG; type: cell-based, Mycobacterium bovis BCG; conditions: 0.5× to 2× MIC90, 1.5 h + 30 min dye
[6] = system: M. bovis BCG; type: cell-based, Mycobacterium bovis BCG; conditions: 4× MIC90, up to 24 h
[7] = system: M. bovis BCG; type: cell-based, Mycobacterium bovis BCG; conditions: 4× MIC90, after 24 hours
[8] = Aqueous solubility (Multiscreen solubility filter plates); type: physicochemical; conditions: pH 7.4, 24 h agitation
[9] = system: M. bovis BCG; type: cell-based, Mycobacterium bovis BCG; conditions: 4× MIC90, up to 24 h; remark: listed apart in the source
[10] = system: M. bovis BCG; assay: microbe, parasite or virus in culture; type: cell-based; conditions: Mycobacterium tuberculosis variant bovis BCG, 120 h
[11] = Horseradish peroxidase-phenol red assay for H2O2 generation; type: biochemical; conditions: in vitro, with DTT
[12] = system: M. bovis BCG; type: cell-based, Mycobacterium bovis BCG
[13] = system: M. bovis BCG; type: cell-based, Mycobacterium bovis BCG; conditions: 4× MIC90, time course to 24 h and after
[14] = system: M. bovis BCG-piniBAC-RFP; type: cell-based, Mycobacterium bovis BCG; conditions: 24 h, various concentrations
[15] = system: M. tb H37Rv; assay: MIC determination by broth dilution on M. tb H37Rv; type: cell-based; conditions: Mycobacterium tuberculosis
[16] = read-out: M. bovis BCG MIC90, concentration reducing growth by 90% vs untreated controls, broth dilution
[17] = read-out: MIC90 of control compounds (Fig. 4 legend), controls of redox assays, organism not restated
[18] = Universal buffer with 1% DMSO, pH 7.4, 25 °C

Structure (SMILES)	IC50 [1]	MIC50 ([2]; broth dilution)	MIC90 [2, 16]	M. bovis BCG MIC50 ([2]; broth dilution)	further results
Cc1nc2ccccc2n1CCCCCCCCCCC[P+](c1ccccc1)(c1ccccc1)c1ccccc1.[I-] [Compound 11]	11.5 µM	0.9 µM	1.4 µM		M. bovis BCG MIC90 ([2]; broth dilution): 1.4 (1.4, 1.4) μM
O=C1c2ccccc2C(=O)c2c1nc(C(F)(F)F)n2CCCCCCCCCCC[P+](c1ccccc1)(c1ccccc1)c1ccccc1 [Compound 14]	5.6 µM	1.8 µM	2.8 µM		
Cc1nc2c(n1CCCCCCCCCCC[P+](C1CCCCC1)(C1CCCCC1)C1CCCCC1)C(=O)c1ccccc1C2=O.[I-] [Compound 18]	4.1 µM	0.6 µM	0.9 µM	0.6 (0.6, 0.6) μM	
Cc1nc2c(n1CCCCCCC[P+](c1ccccc1)(c1ccccc1)c1ccccc1)C(=O)c1ccccc1C2=O.[I-] [Compound 5]	48.4 µM	1.2 µM	2.3 µM	1.2 (1.2, 1.2) μM	
Cc1cc(=O)n(CCCCCCCCCCC[P+](c2ccccc2)(c2ccccc2)c2ccccc2)c2c1C(=O)c1ccccc1C2=O [Compound 13]	2.1 µM	3.8 µM	5.7 µM		
CCCCCCCCn1c2c([n+](CCCC)c1C)C(=O)c1ccccc1C2=O.[Br-] [Compound 45, reference compound]					EC50 [3]: 0.2 µM; Induction of pfurA promoter (RFP fluorescence) [4]: discernible dose-dependent increase in the fluorescence signal; MIC90 [2, 17]: 0.32 µM; ROS formation in cultures (CellROX Green) [5]: dose-dependent ROS formation
Cc1nc2ccccc2n1CCCCCCC[P+](c1ccccc1)(c1ccccc1)c1ccccc1.[I-] [Compound 10]	86.4 µM	3.8 µM	5.6 µM	3.8 (3.8, 3.8) μM	
CCCCCCC[P+](c1ccccc1)(c1ccccc1)c1ccccc1.[I-] [Compound 8]		5.5 µM	10.5 µM		Membrane potential (DiOC2(3) red/green ratio) [6]: behaved similarly to 6 and 7; M. bovis BCG MIC90 ([2]; broth dilution): 10.5 (10.2, 10.8) μM
Cc1nc2c(n1CCC[P+](c1ccccc1)(c1ccccc1)c1ccccc1)C(=O)c1ccccc1C2=O.[I-] [Compound 3]	> 400 µM	4 µM	5.6 µM	4.0 (4.0, 4.0) μM	
Cc1nc2c(n1CCCCCCCCCCC[P+](c1ccccc1)(c1ccccc1)c1ccccc1)C(=O)c1cccnc1C2=O [Compound 15]	5.4 µM	0.65 µM	1.2 µM		IC50 [2]: 0.6 µM
Cc1nc2c(n1CCCCCCC[n+]1ccccc1)C(=O)c1ccccc1C2=O.[I-] [Compound 16]		28.7 µM	48.5 µM	28.7 (32.5, 25.0) μM	M. bovis BCG MIC90 ([2]; broth dilution): 48.5 (48.0, 49.0) μM
Cc1nc2c(n1CCCCCCCCC[P+](c1ccccc1)(c1ccccc1)c1ccccc1)C(=O)c1ccccc1C2=O.[I-] [Compound 6]	12.4 µM	0.59 µM	1 µM	0.58 (0.6, 0.59) μM	CFU count of treated cultures [7]: remained relatively constant; solubility at 24 h ([8]; 25 °C): 105.8 µM; solubility at 24 h [8, 18]: 106 µM; Membrane permeabilization (SYTO9/PI green/red ratio) [9]: not accompanied by membrane permeabilization; MBC ([10]; read-out: M. bovis BCG MBC90): 1.6 µM; MBC ([10]; read-out: M. bovis BCG MBC99): 3.1 µM; MBC ([10]; read-out: M. bovis BCG MBC99.9): 6.2 µM; Membrane potential (DiOC2(3) red/green ratio) [6]: rapid and sustained loss of membrane potential; Induction of pfurA promoter (RFP fluorescence) [4]: not observed; H2O2 generation, HRP-phenol red assay [11]: negligible H2O2 generation; Time-kill: CFU over 21 days [12]: steady decrease of CFU up to day 8; Intracellular ATP levels [13]: initial drop in ATP levels; ROS formation in cultures (CellROX Green) [5]: negligible levels of ROS; Induction of piniBAC promoter (RFP fluorescence) [14]: no increase in fluorescence; MIC50 [15]: 0.37 µM; MIC90 [15]: 0.8 µM
O=C1C=CC(=O)c2ccccc21 [NQ, 1,4-Naphthoquinone, reference compound]					MIC90 [2, 17]: 100 µM (≈ 15.8 µg/mL)
Cc1nc2c(n1CCCCCCCCCCC[P+](c1ccccc1)(c1ccccc1)c1ccccc1)C(=O)c1ccccc1C2=O.[I-] [Compound 7]	5.6 µM	0.5 µM	≤ 1 µM		CFU count of treated cultures [7]: remained relatively constant; solubility at 24 h [8, 18]: 27 µM; Membrane permeabilization (SYTO9/PI green/red ratio) [9]: not accompanied by membrane permeabilization; MBC ([10]; read-out: M. bovis BCG MBC90): 1.6 µM; MBC ([10]; read-out: M. bovis BCG MBC99): 3.1 µM; MBC ([10]; read-out: M. bovis BCG MBC99.9): 6.2 µM; Membrane potential (DiOC2(3) red/green ratio) [6]: rapid and sustained loss of membrane potential; Activation of NADH oxidation, WT IMV ([3]; WT M. smegmatis): negligible activation of NADH oxidation; Induction of pfurA promoter (RFP fluorescence) [4]: not observed; H2O2 generation, HRP-phenol red assay [11]: negligible H2O2 generation; Intracellular ATP levels [13]: initial drop in ATP levels; IC50 [2]: 0.55 µM; ROS formation in cultures (CellROX Green) [5]: negligible levels of ROS; Induction of piniBAC promoter (RFP fluorescence) [14]: no increase in fluorescence; MIC50 [15]: 1.15 µM; MIC90 [15]: 1.8 µM
CCCCCCCCCCC[P+](c1ccccc1)(c1ccccc1)c1ccccc1.[I-] [Compound 9]		2.1 µM	2.8 µM		Membrane potential (DiOC2(3) red/green ratio) [6]: behaved similarly to 6 and 7
NNC(=O)c1ccncc1 [INH, isoniazid, reference compound]					Time-kill: CFU over 21 days [12]: rapid decrease in CFU in the first two time points; MIC90 [2, 17]: 3.7 µM (≈ 0.507 µg/mL); Induction of piniBAC promoter (RFP fluorescence) [14]: increased piniBAC promoter activity
Cc1nc2c(n1CCCCC[P+](c1ccccc1)(c1ccccc1)c1ccccc1)C(=O)c1ccccc1C2=O.[I-] [Compound 4]	> 400 µM	2.4 µM	4.6 µM		M. bovis BCG MIC90 ([2]; broth dilution): 4.6 (4.6, 4.6) μM
Cc1nc2c(n1CCCCCCC[P+](C1CCCCC1)(C1CCCCC1)C1CCCCC1)C(=O)c1ccccc1C2=O.[I-] [Compound 17]	24.4 µM	1.3 µM	2.5 µM	1.3 (1.3, 1.3) μM	
CCCCCC[P+](CCCCCC)(CCCCCC)CCCCCCCn1c(C)nc2c1C(=O)c1ccccc1C2=O.[I-] [Compound 19]	5.2 µM	0.7 µM	1.4 µM	0.7 (0.7, 0.7) μM	M. bovis BCG MIC90 ([2]; broth dilution): 1.4 (1.4, 1.4) μM
Cc1cc(=O)n(CCCCCCC[P+](c2ccccc2)(c2ccccc2)c2ccccc2)c2c1C(=O)c1ccccc1C2=O.[I-] [Compound 12]	5.9 µM	1 µM	1.4 µM		M. bovis BCG MIC90 ([2]; broth dilution): 1.4 (1.4, 1.4) μM
CCCCn1c2c([n+](C3CCC4(CCCCC4)CC3)c1C)C(=O)c1ccccc1C2=O.[Br-] [Compound 44, reference compound]					EC50 [3]: 0.76 µM; Induction of pfurA promoter (RFP fluorescence) [4]: discernible dose-dependent increase in the fluorescence signal; MIC90 [2, 17]: 0.32 µM; ROS formation in cultures (CellROX Green) [5]: dose-dependent ROS formation
